Here are results for 30 compounds from US9604947B2, “Substituted 5-imino-1,2,4-thiadiazoles that can be used to treat neurodegenerative diseases” (CONSEJO SUPERIOR DE INVESTIGACIONES CIENTIFICAS (CSIC), priority 2009, dated 2017).

Each structure is given as a SMILES string. Counter-ions that a name gives are not always drawn. Like-named read-outs stand apart in the source and are kept apart here.

Series [1] deals with T1, PDE7A1 (Homo sapiens, UniProt Q13946).
T1 construct: purchased Calbiochem 524751
T1 sequence (Q13946 whole entry): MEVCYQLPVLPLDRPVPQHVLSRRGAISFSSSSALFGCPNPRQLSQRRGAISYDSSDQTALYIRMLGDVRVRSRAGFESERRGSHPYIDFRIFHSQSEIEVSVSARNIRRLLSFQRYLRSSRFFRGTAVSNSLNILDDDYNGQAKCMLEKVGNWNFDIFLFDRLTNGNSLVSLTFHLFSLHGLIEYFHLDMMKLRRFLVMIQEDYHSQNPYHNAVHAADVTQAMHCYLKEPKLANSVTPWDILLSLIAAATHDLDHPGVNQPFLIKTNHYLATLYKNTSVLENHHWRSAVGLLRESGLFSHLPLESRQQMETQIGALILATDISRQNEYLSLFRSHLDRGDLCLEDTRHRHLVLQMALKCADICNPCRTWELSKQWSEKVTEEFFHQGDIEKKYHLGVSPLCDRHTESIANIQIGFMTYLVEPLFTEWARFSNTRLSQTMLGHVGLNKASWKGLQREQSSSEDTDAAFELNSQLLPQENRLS
The experiment in a line: Determination of PDE7 inhibition (SPA, [3H]cAMP). The format is biochemical. The conditions noted are these: for IC50: read-out: IC50 (PDE7A). As to the method:
PDE-7 inhibition was performed with a commercial kit for the determination of phosphodiesterase activity (GE Healthcare Life Sciences, cat#TRKQ7090).
The compounds to be evaluated were incubated (in concentrations between 0.1 nM and 100 μM) in presence of 0.02 U/well of PDE7A1 (Calbiochem cat#524751) and 0.05 μCi of [^3H] cAMP, for 20 min at 30° C. in the assay buffer of kit (total volume=100 μl).
After this time, 50 μl of a suspension of 20 mg/ml microspheres of SPA of Ytrium silicate were added and was maintained under stirring at room temperature for 60 min. Finally, the plate was settled for 20 min and radioactivity was detected in a Microbeta Trilux reader.
In every assay there were included two points without PDE7A1 (blank) and two points with PDE7A1 without inhibitors (control).
Data Analysis: All the compounds were evaluated firstly at the concentration of 10 μM and the percentage of PDE7A1 inhibition was calculated, according to the following formula (cpm=counts per minute): % Inhibition=((cpm control−cpm sample)×100)/(cpm control−cpm blank assay).
For those compounds with % inhibition values above 45% it was calculated its inhibitory potency (IC50) building the dose-response curve.
The data were adjusted with the software Prism v 2.1 (GraphPad Software) using the non lineal fitting.

A short description of series [2]: in vitro. As to the method: Ten commercial reference drugs, phosphate buffer saline solution at pH 7.4 (PBS), DMSO and dodecane were purchased from Sigma, Acros organics, Aldrich and Fluka. […] Filter PDVF membrane units (diameter 30 mm, pore size 0.45 μm) from Symta were used to filtered the samples. A 96-well plate UV reader (Thermoscientific, Multiskan spectrum) was used for the UV measurements. […] These solutions were filtered. The acceptor 96-well microplate was filled with 180 μL of PBS:DMSO (95:5). The donor 96-well plate was coated with 4 μL of porcine brain lipid in dodecane (20 mg mL^−1) and after 5 minutes, 180 μL of each compound solution was added. 1-2 mg of every compound to be determined their ability to pass the BBB were dissolved in 250 μL of DMSO and 4750 μL of PBS pH 7.4 buffer, filtered and then added to the donor 96-well plate. Then the donor plate was carefully put on the acceptor plate to form a “sandwich”, which was left undisturbed for 4 h at 25° C.
During this time the compounds diffused from the donor plate through the brain lipid membrane into the acceptor plate. After incubation, the donor plate was removed. The concentration of compounds and commercial drugs in the acceptor and the donor wells was determined by UV plate reader. Every sample was analyzed from three to five wavelengths, in 3 wells and in at least three independent runs. […] 11 quality control compounds (previously mentioned) of known BBB permeability were included in each experiment to validate the analysis set.

[3] abbreviates: 1,2,4-thiadiazoles-5-imino substituted as hydrobromides.
[4] abbreviates: 1,2,4-thiadiazoles-5-imino substituted as hydrochlorides.

As to `c1ccc(-c2nc(=NCc3cccnc3)sn2-c2cccc3ccccc23)cc1` [2-(1-Naphthyl)-3-phenyl-5-(3-pyridylmethylimino)-2,5-dihydro-1,2,4-thiadiazole dihydrobromide], the IC50 in series [1] (setting [3]) was 0.87 µM.
On the same count and under the same terms, for `O=[N+]([O-])c1ccc(-n2sc(=NCc3cccnc3)nc2-c2ccccc2)cc1` [2-(4-Nitrophenyl)-3-phenyl-5-(3-pyridinylmethylimino)-2,5-dihydro-1,2,4-thiadiazole dihydrobromide] the value was 0.84 µM.
Still for that read-out and setting: for `c1ccc(-n2sc(=NCc3cccnc3)nc2-c2cccc3ccccc23)cc1` [3-(1-Naphthyl)-2-phenyl-5-(3-pyridylmethylimino)-2,5-dihydro-1,2,4-thiadiazole dihydrobromide] the value was 1.08 µM.
As for `c1ccc(-n2sc(=NCc3cccnc3)nc2-c2cccc3ccccc23)cc1` [3-(1-Naphthyl)-2-phenyl-5-(3-pyridylmethylimino)-2,5-dihydro-1,2,4-thiadiazole hydrochloride], the IC50 in series [1] (setting [4]) stood at 1.5 µM.
`CCCCCN=c1nc(-c2ccc(OC)cc2)n(-c2ccccc2)s1` [3-(4-Methoxyphenyl)-5-pentylimino-2-phenyl-2,5-dihydro-1,2,4-thiadiazole hydrobromide]: in series [1] (setting [3]), the concentration for half-maximal inhibition (IC50) turned out to be 0.81 µM.
Take `CCCCCN=c1nc(-c2ccc(OC)cc2)n(-c2ccccc2)s1` [3-(4-Methoxyphenyl)-5-pentylimino-2-phenyl-2,5-dihydro-1,2,4-thiadiazole hydrochloride]: the IC50 in series [1] (setting [4]) was 3.7 µM.
Take `FC(F)(F)c1ccc(-c2nc(=NCc3cccnc3)sn2-c2ccccc2)cc1` [3-(4-Trifluoromethylphenyl)-2-phenyl-5-(3-pyridylmethylimino)-2,5-dihydro-1,2,4-thiadiazole dihydrobromide]: in series [1] (read-out: % inhibition of PDE7A at 10 μM, hydrobromides, at 10 μM), the inhibition at 10 µM was determined as 87%.
`OCCN=c1nc(-c2ccccc2)n(-c2cccc3ccccc23)s1` [5-(2-Hydroxyethylimino)-2-(1-naphthyl)-3-phenyl-2,5-dihydro-1,2,4-thiadiazole hydrobromide]: the half-maximal inhibitory concentration (IC50) in series [1] (setting [3]) worked out at 2.2 µM.
Consider `c1ccc(-c2nc(=NCCN3CCOCC3)sn2-c2ccccc2)cc1` [5-(2-Morpholinethylimino)-2,3-diphenyl-2,5-dihydro-1,2,4-thiadiazole dihydrobromide], for which, in series [1] (setting [3]), the half-maximal inhibitory concentration (IC50) worked out at 1.59 µM.
On the same count and under the same terms, for `CCOC(=O)CN=c1nc(-c2ccccc2)n(-c2ccc([N+](=O)[O-])cc2)s1` [5-Ethoxycarbonylmethylimino-2-(4-nitrophenyl)-3-phenyl-2,5-dihydro-1,2,4-thiadiazole hydrobromide] the value was 0.79 µM.
In the case of `CC(C)NCC(O)COc1ccc(CC(N)=O)cc1` (stereo not drawn) [Atenolol, reference compound], in series [2] (pig, PAMPA, 4 h, pH 7.4), the “Pe (10^−6 cm s^−1)” value was 0.8 ± 1.1 10^−6 cm s^−1.
Still for that read-out and setting: for `CCn1cc(C(=O)O)c(=O)c2cc(F)c(N3CCNCC3)nc21` [Enoxacin, reference compound] the value was 0.9 ± 0.5 10^−6 cm s^−1.
Regarding `CN1C(C(=O)Nc2ccccn2)=C(O)c2ccccc2S1(=O)=O` [Piroxicam, reference compound], the “Pe (10^−6 cm s^−1)” value in series [2] (PBS:DMSO (95:5) as solvent, 4 h at 25° C., mean ± SD of at least 3 independent experiments) is on record as 2.2 ± 0.9 10^−6 cm s^−1.
Compound `CN(C)CCCN1c2ccccc2Sc2ccccc21` [Promazine, reference compound] came in with a Papp at 4 h in series [2] (PAMPA, pH 7.4) of 9.7 ± 1.5 ×10⁻⁶ cm/s.
As for `CCOC(=O)CN=c1nc(-c2ccccc2)n(-c2ccccc2)s1` [R1=Ph, R2=Ph, R3=CH2CO2Et (free base), 5-Ethoxycarboximethylimino-2,3-diphenyl-2,5-dihydro-1,2,4-thiadiazole], the “% inhibition of PDE7A at 10 μM” value in series [1] (free bases, at 10 μM) stood at 6%@10.
In the case of `c1ccc(-c2nc(=NC3CCCCC3)sn2-c2ccccc2)cc1` [R1=Ph, R2=Ph, R3=Cy (hydrobromide)], the IC50 in series [1] (setting [3]) was found to be 1.64 µM.
The same measure, in the same setting: for `N=c1nc(-c2ccccc2)n(-c2ccccc2)s1` [R1=Ph, R2=Ph, R3=H (hydrobromide)] the value was 1.02 µM.
As for `c1ccc(N=c2nc(-c3ccccc3)n(-c3ccccc3)s2)cc1` [R1=Ph, R2=Ph, R3=Ph (free base), 2,3-Diphenyl-5-phenylimino-2,5-dihydro-1,2,4-thiadiazole], the IC50 in series [1] (1,2,4-thiadiazoles-5-imino substituted as free bases) was determined as 3.52 µM.
As for `c1ccc(N=c2nc(-c3ccccc3)n(-c3ccccc3)s2)cc1` [R1=Ph, R2=Ph, R3=Ph (hydrobromide), 2,3-Diphenyl-5-phenylimino-2,5-dihydro-1,2,4-thiadiazole hydrobromide], the half-maximal inhibitory concentration (IC50) in series [1] (setting [3]) was 3.03 µM.
The same measure, in the same setting: under `CCCCCN=c1nc(-c2ccccc2)n(-c2ccccc2)s1` [R1=Ph, R2=Ph, R3=n-Pent (hydrobromide), 5-Pentylimino-2,3-diphenyl-2,5-dihydro-1,2,4-thiadiazole hydrobromide] stands 1.44 µM; under `COc1ccc(-c2nc(=Nc3ccccc3)sn2-c2ccccc2)cc1` [R1=pOMePh, R2=Ph, R3=Ph (hydrobromide)], 4.36 µM.
For the compound `Br.Br.c1ccc(-c2nc(=NCc3cccnc3)sn2-c2ccccc2)cc1` [VP-1.14, 2,3-Diphenyl-5-(3-pyridinylmethylimino)-2,5-dihydro-1,2,4-thiadiazole dihydrobromide], the “Prediction (predictive penetration in the CNS)” value (from here on “Prediction”) in series [2] (PAMPA) is listed as “CNS+”. The same compound returned a Papp at 4 h in series [2] (PAMPA, pH 7.4) of 10.7 ± 0.3 ×10⁻⁶ cm/s. In addition, the half-inhibitory concentration (IC50) in series [1] (setting [3]) was determined as 0.38 µM.
The like results for `Br.OCCN=c1nc(-c2ccccc2)n(-c2ccccc2)s1` [VP-1.15, 5-(2-Hydroxyethylimino)-2,3-diphenyl-2,5-dihydro-1,2,4-thiadiazole hydrobromide] were, in that order, “CNS+”, 15.4 ± 2 ×10⁻⁶ cm/s and 1.11 µM.
As for `Br.CCOC(=O)CN=c1nc(-c2ccccc2)n(-c2ccccc2)s1` [VP-1.16, 5-Ethoxycarbonylmethylimino-2,3-diphenyl-2,5-dihydro-1,2,4-thiadiazole hydrobromide], in series [2] (PAMPA), the “Prediction” value was “CNS+”. In addition, in series [2] (PAMPA, pH 7.4), the Papp at 4 h turned out to be 6.2 ± 0.4 ×10⁻⁶ cm/s. Further, in series [1] (setting [3]), the IC50 turned out to be 1.13 µM.
For the compound `Br.COc1ccc(-c2nc(=NCCO)sn2-c2ccccc2)cc1` [VP-1.40, 5-(2-Hydroxyethylimino)-3-(4-methoxyphenyl)-2-phenyl-2,5-dihydro-1,2,4-thiadiazole hydrobromide], the “Prediction” value in series [2] (PAMPA) is “CNS+”. Besides, the Papp at 4 h in series [2] (PAMPA, pH 7.4) is 13.7 ± 0.8 ×10⁻⁶ cm/s. Further, the IC50 in series [1] (setting [3]) amounted to 1.5 µM.
The like results for `Br.Br.COc1ccc(-c2nc(=NCc3cccnc3)sn2-c2ccccc2)cc1` [VP-1.43, 3-(4-Methoxyphenyl)-2-phenyl-5-(3-pyridylmethylimino)-2,5-dihydro-1,2,4-thiadiazole dihydrobromide] were, in that order, “CNS+”, 4.4 ± 0.6 ×10⁻⁶ cm/s and 0.86 µM.
The like results for `Br.Br.COc1ccc(-n2sc(=NCc3cccnc3)nc2-c2ccccc2)cc1` [VP-1.60, 2-(4-Methoxyphenyl)-3-phenyl-5-(3-pyridinylmethylimino)-2,5-dihydro-1,2,4-thiadiazole dihydrobromide] were, in that order, “CNS+”, 6.2 ± 0.4 ×10⁻⁶ cm/s and 0.85 µM.
For `Br.COc1ccc(-n2sc(=NCCO)nc2-c2ccccc2)cc1` [VP-1.61, 5-(2-Hydroxyethylimino)-2-(4-methoxyphenyl)-3-phenyl-2,5-dihydro-1,2,4-thiadiazole hydrobromide], in that order: “CNS+”, 13.7 ± 1 ×10⁻⁶ cm/s and 1.18 µM.
On to `Br.CCOC(=O)CN=c1nc(-c2ccccc2)n(-c2ccc(OC)cc2)s1` [VP-1.62, 5-Ethoxycarbonylmethylimino-2-(4-methoxyphenyl)-3-phenyl-2,5-dihydro-1,2,4-thiadiazole hydrobromide], for which the “Prediction” value in series [2] (PAMPA) is reported as “CNS+/CNS−”. In series [2] (PAMPA, pH 7.4), this compound gave an apparent permeability coefficient (Papp) at 4 h of 4 ± 0.8 ×10⁻⁶ cm/s. Further, the IC50 in series [1] (setting [3]) was 0.78 µM.
The like results for `Br.CCOC(=O)CN=c1nc(-c2ccc(OC)cc2)n(-c2ccccc2)s1` [VP-1.65, 5-Ethoxycarbonylmethylimino-3-(4-methoxyphenyl)-2-phenyl-2,5-dihydro-1,2,4-thiadiazole hydrobromide] were, in that order, “CNS+/CNS−”, 3.8 ± 0.2 ×10⁻⁶ cm/s and 0.89 µM.

In general, IC50 refers to the concentration needed to halve the response being measured. Broadly, the inhibition is the percentage by which the read-out fell short of the control. The Papp is a coefficient for how fast a substance crosses the barrier.
